System: colorectal cancer metastases
Test: Overall survival after surgical removal of metastases in 5-FU treated colorectal cancer patients, by TYMS amplification status
Format: in vivo, human
Settings: for Median survival after metastasis removal / Survival range after metastasis removal: previous treatment 5-FU
Description: Tissue samples, including normal tissues, primary tumors, and metastases were obtained from colorectal cancer patients undergoing surgery at the Johns Hopkins Hospital between 1990 and 2002. A diagnosis of colorectal cancer was established by histological examination of surgical specimens and clinical information was retrospectively retrieved from patient records. Acquisition of tissue specimens and examination of clinical records was approved by an institutional review board and was performed in accordance with HIPAA regulations. Metastatic samples were obtained from complete resections, debulking, or biopsies of metastatic lesions.
Overall survival was calculated from the date of the surgical excision of the metastasis to the date of death or last follow-up and computed by Kaplan-Meier method. Data were censored when patients were lost to follow-up.
A corollary of this idea is that such patients would fare worse than those without TYMS amplification, as post-surgical therapy of patients with metastatic cancers often involves retreatment with 5-FU plus other agents (see Introduction). To evaluate this possibility, we compared the survival of patients with metastatic lesions that had previously been treated with 5-FU, segregated according to TYMS amplification status. Although the average age, stage at initial diagnosis, and metastasis size and location were similar between patients with and without increased TYMS gene copies, the median overall survival following surgical removal of metastases among patients with TYMS gene amplification was 329 days, as compared with 1021 days for patients without TYMS amplification (Table 2, p<0.01, t-Test). […] These differences were also significant in Kaplan-Meier analyses (FIG. 4).

[1] = Group A (n = 6), TYMS amplified in metastasis
[2] = Group B (n = 21), TYMS not amplified in metastasis

SMILES: O=c1[nH]cc(F)c(=O)[nH]1 [5-FU, 5-fluorouracil]
- Relative risk of death, patients with TYMS amplification vs without (5-FU treated patients, proportional hazard model, 95% confidence interval 1.06-11.4, p<0.05): 3.5 fold
- Median survival after metastasis removal [1]: 329 days
- Survival range after metastasis removal [1]: (109-708 days)
- Median survival after metastasis removal [2]: 1021 days
- Survival range after metastasis removal [2]: (255-3790 days)

— patent publication US20050202465A1, “Thymidylate synthase gene and metastasis” (The Johns Hopkins University, priority 2004, published 2005)
